For the assay, the system named is Erwinia amylovara. In words: Measuring the efficiency against fire blight on inoculated apple blossoms. Type of assay: in vivo. Particulars: 0.06 % by weight in water (positive control); apple blossoms sprayed 1 h after inoculation, 6 days, vs water control. As to the method:
For measuring the efficiency of the aqueous compositions, 24 blossoms of the apple varieties Braeburn, Jona Gold and Gala are placed in sugar solution and inoculated with a suspension of Erwinia amylovara at 10^6 bacterial cells. One hour after inoculation, the blossoms are sprayed, respectively, with the composition to be tested or with water, serving as a negative control, until completely wetted. These blossoms are incubated for 6 days at 20 to 23° C. and at a relative humidity of 100%.
The efficiency specifies the decrease of infested blossoms utilizing the composition to be tested in comparison to blossoms, which were treated with water only. All tests are conducted three to six times, and from the measured data the empirical mean of the efficiency, as well as the empirical standard deviation σ are calculated, whereby the standard deviation σ represents […] of the data from the arithmetic mean of the efficiency.

Several values for one entry are separate records, joined by “and”; a condition that tells them apart may be missing. Identical values can stand only once.

Regarding `[H]/N=C(/N)N[C@H]1[C@H](O)[C@@H](O)[C@H](O[C@@H]2O[C@@H](C)[C@](O)(C=O)[C@H]2O[C@@H]2O[C@@H](CO)[C@H](O)[C@@H](O)[C@@H]2NC)[C@@H](N/C(N)=N\[H])[C@@H]1O` [streptomycin], the mean of efficiency is 74% and 70% and 75%.

(Values after patent US9149043B2, “Compositions and method for preventing and treating fire blight” (priority 2009, dated 2015).)
